Measurements: patent US8895744B2, “Alfa-carboline inhibitors of NPM-ALK, RET, and Bcr-Abl” (Universita' Degli Studi di Milano-Bicocca, priority 2008, dated 2014)

Experiments:
Recombinant ALK kinase = target: T1, Recombinant ALK kinase (Homo sapiens, UniProt Q9UM73); assay: ALK kinase inhibitory activity, ELISA-based in vitro kinase assay; format: biochemical; conditions: purified rALK, 0.3 mM ATP, read-out: ALK IC50
T1 construct: made in house; host or cells: Sf9 insect cells (baculovirus)
Description: 36. Alk Kinase Inhibitory Activity
(§1) Method: ELISA-Based In Vitro Kinase Assay
(§2) Recombinant ALK kinase was expressed in Sf9 insect cells using the pBlueBacHis2C baculovirus vector system and purified using an anion exchange Fast Flow Q-sepharose column (Amersham-Pharmacia Biotech) followed by HiTrap™-nickel affinity column (Amersham-Pharmacia Biotech). Purified ALK protein was used to screen inhibitors in the ELISA-based kinase assay. A Nunc Immuno 96 well plate was incubated overnight at 37° C. with coating solution (125 μL/well) containing ALK peptide substrate ([…]) (SEQ ID NO: 1) at various concentrations in PBS. Wells were then washed with 200 μL of wash buffer (PBS-Tween 0.05%) and left to dry for at least 2 h at 37° C. The kinase reaction was performed in the presence of 50 mM Tris pH 7.5, 5 mM MnCl2, 5 mM MgCl2, 0.3 mM ATP and purified rALK in a total volume of 100 μL/well at 30° C. for 15 min. For inhibitor testing the reaction mix was preincubated with the inhibitor or solvent control for 10 min at room temperature before transferring to the ELISA plate. After the reaction wells were washed 5 times with 200 μL of wash buffer. Phosphorylated peptide was detected using 100 μL/well of a mouse monoclonal anti-phosphotyrosine antibody (clone 4G10 Upstate Biotech Ltd) diluted 1:2000 in PBS+4% BSA. After 30 min incubation at room temperature the antibody was removed and wells were washed as described above. 100 μL of a secondary antibody (anti-mouse IgG, Horseradish Peroxidase linked whole antibody, Amersham Pharmacia Biotech) diluted 1:1000 in PBS+4% BSA was added to each well and the plate was incubated again for 30 min at room temperature before washing as above. The plate was developed using 100 μL/well TMB Substrate Solution (Endogen) and the reaction was stopped by adding an equiv.ual volume of H2SO4 0.36 M. Finally, the absorbance was read at 450 nm using an Ultrospec® 300 spectrophotometer (Amersham-Pharmacia Biotech). The concentration of the test solution showing 50% inhibition as compared with the control was expressed as IC50 (μM).

[1] = target: T2, BaF3 cells transformed with the oncogenic fusion protein NPM/ALK (Homo sapiens, UniProt Q9UM73); assay: Tritiated thymidine uptake cell proliferation assay, BaF3 NPM/ALK; format: cell-based; conditions: 3[H]-thymidine uptake, 72 h; read-out: BaF NPM/ALK IC50
T2 construct: fused on or other part: P06748 (Nucleophosmin)
Description: Inhibition of the proliferation of NPM/ALK positive cells
(§3) Method: Tritiated Thymidine Uptake Cell Proliferation Assay
(§4) The following procedure was used with parent untransformed BaF3 cells, BaF3 cells transformed with the oncogenic fusion protein NPM/ALK, NPM/ALK positive SUDHL-1 cells, ALK-negative U937 cells, NPM/ALK positive KARPAS-299 cells. The parent untransformed BaF3 cells and Alk-negative U937 cells are used as controls. Cells were seeded in U-bottomed 96-well plates at 10 000 cells/well in a volume of 100 μL in supplemented medium. In the case of the parent untransformed BaF3 cells, the medium was supplemented with IL-3. Serial dilutions of inhibitors were added to the appropriate wells and volumes adjusted to 200 μL. Controls were treated with the equivalent volume of vehicle, DMSO, alone. Plates were incubated at 37° C. for 72 h. ^3[H]-thymidine (1 μCi/well) was added for the last 16 h of incubation. Cells were harvested on to paper filters and ^3[H]-thymidine incorporation was measured using a β scintillation counter (1430 MicroBeta, Wallac, Turku, Finland). The 50% inhibitory concentration (IC50) was defined as the concentration of inhibitor, expressed in micromolar, that gave a 50% decrease in ^3[H]-thymidine uptake compared with controls.

[2] = system: parent untransformed BaF3 cells; assay: Tritiated thymidine uptake cell proliferation assay, parental BaF3 (control); format: cell-based; conditions: Mus musculus, 3[H]-thymidine uptake, 72 h, medium with IL-3, read-out: BaF parental IC50
Description: as §3, §4
as §4, with “protein bcr-abl, Abl-negative” for “protein NPM/ALK, NPM/ALK positive SUDHL-1 cells, ALK-negative”, “cells, or Bcr-abl” for “cells, NPM/ALK”, “positive LAMA-84” for “positive KARPAS-299”, “and Abl-negative” for “and Alk-negative”, “in ^3H-thymidine” for “in ^3[H]-thymidine”
as §4, with “RET-PTC2, or RET-negative 11937” for “NPM/ALK, NPM/ALK positive SUDHL-1 cells, ALK-negative U937 cells, NPM/ALK positive KARPAS-299”, “RET-negative” for “Alk-negative”

[3] = target: T3, Recombinant Abl T315I protein (Homo sapiens, UniProt P00519, T315I); assay: Abl T315I mutant kinase inhibitory activity, ELISA-based in vitro kinase assay; format: biochemical; conditions: purified Abl T315I, 0.3 mM ATP
T3 construct: made in house; host or cells: Sf9 cells (baculovirus)
Description: as §2
37. Abl T315I Mutant Kinase Inhibitory Activity
as §1
Recombinant Abl T315I protein was expressed in Sf9 cells using the pBlueBacHis2C baculovirus expression vector. Abl T315I was purified using an anion exchange Fast Flow Q-sepharose column (Amersham-Pharmacia Biotech) followed by HiTrap™-nickel affinity column (Amersham-Pharmacia Biotech). Purified Abl T315I was used in the ELISA-based kinase assay to screen inhibitors as described above. The kinase reaction was performed in the presence of 50 mM Tris pH 7.5, 1 mM MnCl2, 5 mM MgCl2, 0.3 mM ATP, peptide substrate ([…]) (SEQ ID NO: 1) and purified Abl T315I. The concentration of the test solution showing 50% inhibition as compared with the control was expressed as IC50 (μM).

T2 sequence (Q9UM73 whole entry, change not shown, the tested form may be a part): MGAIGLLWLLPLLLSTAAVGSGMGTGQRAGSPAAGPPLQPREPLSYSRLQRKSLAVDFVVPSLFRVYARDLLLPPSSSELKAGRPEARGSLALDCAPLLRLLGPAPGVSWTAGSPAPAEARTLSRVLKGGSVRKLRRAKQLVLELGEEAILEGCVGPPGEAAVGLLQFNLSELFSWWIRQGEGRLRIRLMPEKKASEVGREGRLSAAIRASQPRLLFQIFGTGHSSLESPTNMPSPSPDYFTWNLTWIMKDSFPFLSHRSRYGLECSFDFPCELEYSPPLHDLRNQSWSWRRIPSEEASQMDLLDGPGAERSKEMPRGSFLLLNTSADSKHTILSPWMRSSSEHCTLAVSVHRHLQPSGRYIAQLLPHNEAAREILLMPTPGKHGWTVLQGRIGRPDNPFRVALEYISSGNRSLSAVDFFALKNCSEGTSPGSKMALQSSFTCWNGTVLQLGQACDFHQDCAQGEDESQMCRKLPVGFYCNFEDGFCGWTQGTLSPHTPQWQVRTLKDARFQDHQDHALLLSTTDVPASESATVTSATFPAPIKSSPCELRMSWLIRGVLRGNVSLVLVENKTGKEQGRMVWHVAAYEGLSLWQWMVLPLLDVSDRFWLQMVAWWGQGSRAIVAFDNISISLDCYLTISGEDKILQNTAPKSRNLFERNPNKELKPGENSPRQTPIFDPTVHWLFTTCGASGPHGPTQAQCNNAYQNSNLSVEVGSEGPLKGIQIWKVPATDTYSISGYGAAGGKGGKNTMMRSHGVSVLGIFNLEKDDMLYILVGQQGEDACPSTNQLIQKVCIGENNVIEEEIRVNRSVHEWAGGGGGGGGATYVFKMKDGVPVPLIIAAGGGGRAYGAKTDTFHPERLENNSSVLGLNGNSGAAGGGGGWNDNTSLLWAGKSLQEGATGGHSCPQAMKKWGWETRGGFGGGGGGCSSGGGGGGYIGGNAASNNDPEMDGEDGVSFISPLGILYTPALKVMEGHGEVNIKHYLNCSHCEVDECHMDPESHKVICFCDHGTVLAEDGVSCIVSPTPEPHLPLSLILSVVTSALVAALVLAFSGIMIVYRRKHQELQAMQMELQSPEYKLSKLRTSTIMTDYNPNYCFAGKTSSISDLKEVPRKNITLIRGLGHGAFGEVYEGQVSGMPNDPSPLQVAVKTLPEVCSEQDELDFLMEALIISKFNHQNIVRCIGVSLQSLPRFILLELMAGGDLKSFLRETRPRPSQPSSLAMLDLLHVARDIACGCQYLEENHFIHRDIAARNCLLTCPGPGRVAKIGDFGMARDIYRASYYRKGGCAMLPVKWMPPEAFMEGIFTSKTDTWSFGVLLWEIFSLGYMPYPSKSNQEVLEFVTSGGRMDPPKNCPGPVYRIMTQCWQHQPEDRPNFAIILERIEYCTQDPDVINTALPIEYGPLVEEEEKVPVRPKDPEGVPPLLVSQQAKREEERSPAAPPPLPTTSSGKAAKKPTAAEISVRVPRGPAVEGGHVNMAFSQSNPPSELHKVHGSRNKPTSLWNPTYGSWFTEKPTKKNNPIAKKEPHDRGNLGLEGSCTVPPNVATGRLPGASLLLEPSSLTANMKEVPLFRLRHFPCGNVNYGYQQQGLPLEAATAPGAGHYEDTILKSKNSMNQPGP
T1 sequence (Q9UM73 19-1620): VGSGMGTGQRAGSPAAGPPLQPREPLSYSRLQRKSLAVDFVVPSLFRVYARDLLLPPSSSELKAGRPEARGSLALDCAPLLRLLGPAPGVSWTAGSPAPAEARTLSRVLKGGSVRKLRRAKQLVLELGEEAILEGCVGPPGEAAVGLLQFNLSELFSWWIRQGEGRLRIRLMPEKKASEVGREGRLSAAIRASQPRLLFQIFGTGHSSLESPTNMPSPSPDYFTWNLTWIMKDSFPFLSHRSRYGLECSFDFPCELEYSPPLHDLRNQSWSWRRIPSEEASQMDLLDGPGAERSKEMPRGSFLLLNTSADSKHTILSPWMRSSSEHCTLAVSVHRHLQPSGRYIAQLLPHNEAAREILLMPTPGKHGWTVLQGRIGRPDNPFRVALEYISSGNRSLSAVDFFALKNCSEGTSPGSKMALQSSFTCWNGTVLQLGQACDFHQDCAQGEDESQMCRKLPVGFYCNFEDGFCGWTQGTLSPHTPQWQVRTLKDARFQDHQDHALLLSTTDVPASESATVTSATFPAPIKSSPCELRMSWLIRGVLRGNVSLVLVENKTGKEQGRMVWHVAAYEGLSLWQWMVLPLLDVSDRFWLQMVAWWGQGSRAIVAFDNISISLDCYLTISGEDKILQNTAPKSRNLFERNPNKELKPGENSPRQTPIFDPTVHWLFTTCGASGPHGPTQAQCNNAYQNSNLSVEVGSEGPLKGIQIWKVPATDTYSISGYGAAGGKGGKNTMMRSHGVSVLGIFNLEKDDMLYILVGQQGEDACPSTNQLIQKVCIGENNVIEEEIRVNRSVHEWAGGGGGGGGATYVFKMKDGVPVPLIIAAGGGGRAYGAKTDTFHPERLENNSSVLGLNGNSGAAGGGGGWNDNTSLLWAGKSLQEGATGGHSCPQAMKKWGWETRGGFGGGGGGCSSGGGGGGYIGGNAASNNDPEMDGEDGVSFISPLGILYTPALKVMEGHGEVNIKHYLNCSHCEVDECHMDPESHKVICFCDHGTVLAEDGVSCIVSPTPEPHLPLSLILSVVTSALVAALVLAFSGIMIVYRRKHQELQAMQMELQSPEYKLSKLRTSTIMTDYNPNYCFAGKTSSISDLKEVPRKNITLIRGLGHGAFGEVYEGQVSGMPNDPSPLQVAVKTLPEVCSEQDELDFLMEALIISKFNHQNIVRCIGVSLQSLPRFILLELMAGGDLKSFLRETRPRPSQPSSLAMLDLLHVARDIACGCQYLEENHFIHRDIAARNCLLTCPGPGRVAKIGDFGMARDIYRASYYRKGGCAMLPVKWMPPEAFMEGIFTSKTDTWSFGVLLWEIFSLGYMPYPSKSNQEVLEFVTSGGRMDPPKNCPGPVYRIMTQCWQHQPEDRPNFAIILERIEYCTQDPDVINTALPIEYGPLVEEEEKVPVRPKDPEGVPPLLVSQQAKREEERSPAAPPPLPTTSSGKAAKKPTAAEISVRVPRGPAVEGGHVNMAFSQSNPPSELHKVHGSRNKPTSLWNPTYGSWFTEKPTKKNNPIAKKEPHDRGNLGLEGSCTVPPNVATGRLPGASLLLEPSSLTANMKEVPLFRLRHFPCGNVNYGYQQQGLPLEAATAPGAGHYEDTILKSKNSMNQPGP

| SMILES | IC50 (Recombinant ALK kinase) [µM] | GI50 [1] [µM] | IC50 [2] [µM] | IC50 [3] [µM] |
| --- | --- | --- | --- | --- |
| COC(=O)C(=O)c1ccc2[nH]c3nc(C)ccc3c2c1 [R241, Methyl 2-oxo-2-[2-methyl-9H-pyrido[2,3-b]indol-6-yl]acetate] | 25.3 ± 2.6 |  |  |  |
| COc1cccc(Nc2cnc3[nH]c4ccccc4c3c2)c1 [R344, N-(3-methoxyphenyl)-9H-pyrido[2,3-b]indol-3-amine] | > 100 |  |  |  |
| O=C(Nc1ccc2[nH]c3ncccc3c2c1)c1ccccc1 [R249] | > 100 |  |  |  |
| O=[N+]([O-])c1cccc(Nc2ccnc3[nH]c4ccccc4c23)c1 [R322, N-(3-nitrophenyl)-9H-pyrido[2,3-b]indol-4-amine] | 20 ± 4 | 57 | > 100 |  |
| O=C(CBr)c1ccc2[nH]c3ncc(Cl)cc3c2c1 [R251, 2-Bromo-1-(3-chloro-9H-pyrido[2,3-b]indol-6-yl)ethanone] | 9.7 ± 1.3 |  |  |  |
| Clc1cnc2[nH]c3ccc(-c4ccc(N5CCOCC5)cn4)cc3c2c1 [R308, 3-Chloro-6-(5-morpholin-4-yl-pyridin-2-yl)-9H-pyrido[2,3-b]indole] | > 100 | 60 | 50 |  |
| O=[N+]([O-])c1cccc(Nc2ccc3c(n2)[nH]c2ccccc23)c1 [R317, N-(3-nitrophenyl)-9H-pyrido[2,3-b]indol-2-amine] | 8.2 ± 2.1 | 2.6 | 6.3 | 26 |
| COc1ccc(-c2ccc3[nH]c4ncc(-c5cccc(N)c5)cc4c3c2)cc1 [R357, 3-(6-(4-methoxyphenyl)-9H-pyrido[2,3-b]indol-3-yl)benzenamine] | > 100 |  |  |  |
| c1ccc(-c2ccc(-c3cnc4[nH]c5ccccc5c4c3)cc2)cc1 [R329, 3-(4-phenylphenyl)-9H-pyrido[2,3-b]indole] | 12 ± 7 | > 100 | > 100 |  |
| CCN(CC)CCSCC(=O)c1ccc2[nH]c3nc(Cl)ccc3c2c1 [R305, 1-(2-Chloro-9H-pyrido[2,3-b]indol-6-yl)-2-(N,N-diethylaminoethylsulfanyl)ethan-1-one] | 17 ± 1 | 5.2 | 5.5 | 16 |
| CC(=O)c1ccc2[nH]c3nc(C)ccc3c2c1 [R242, 6-acetyl-2-methyl-9H-pyrido[2,3-b]indole] | 87.1 ± 1.3 |  |  |  |
| Fc1cccc(/C=C/c2cnc3[nH]c4ccc(/C=C/c5ccccc5)cc4c3c2)c1 [R359, 3-((E)-2′-(3-fluorophenyl)ethenyl)-6-(E)-(2-(phenyl)ethenyl)-9H-pyrido[2,3-b]indole] | > 100 |  |  |  |
| COc1cccc(Nc2ccnc3[nH]c4ccccc4c23)c1 [R324, N-(3-methoxyphenyl)-9H-pyrido[2,3-b]indol-4-amine] | > 100 | 3.8 | 1.7 |  |
| O=[N+]([O-])c1cccc(-c2cnc3[nH]c4ccccc4c3c2)c1 [R328, 3-(3-nitrophenyl)-9H-pyrido[2,3-b]indole] | 48 ± 17 | 13 | 6.8 |  |
| O=[N+]([O-])/C=C/c1ccc2[nH]c3ncccc3c2c1 [R244] | 14.6 ± 2.8 |  |  |  |
| CN(C)/C=C/C(=O)c1ccc2[nH]c3ncccc3c2c1 [R246] | 55.1 ± 16.9 |  |  |  |
| COc1ccc2sc(SCC(=O)c3ccc4[nH]c5ncc(Cl)cc5c4c3)nc2c1 [R301, 1-(3-chloro-9H-pyrido[2,3-b]indol-6-yl)-2-(5-methoxybenzothiazol-2-ylsulfanyl)éthanone] | 38 ± 16 |  |  |  |
| c1ccc(-c2ccc(-c3ccnc4[nH]c5ccccc5c34)cc2)cc1 [R330, 4-(4-phenylphenyl)-9H-pyrido[2,3-b]indole] | 14 ± 2 | > 100 | > 100 |  |
| C(=C\c1ccc2c(n1)[nH]c1ccc(-c3ccc(CN4CCOCC4)cc3)cc12)/c1ccccc1 [R316] | > 33 | 10 | > 33 |  |
| CN1CCN(C(=O)CCC(=O)c2ccc3[nH]c4nc(Cl)ccc4c3c2)CC1 [R302, 1-(2-Chloro-9H-pyrido[2,3-b]indol-6-yl)-4-(4-methylpiperazin-1-yl)butane-1,4-dione] | 24 ± 2 | 4.8 | 5.8 |  |
| C(=C\c1ccc2[nH]c3nc(Nc4ccccc4)ccc3c2c1)/c1ccccc1 [R320] |  |  | 23 |  |
| COc1ccc(-c2ccc3[nH]c4ncc(-c5cccc([N+](=O)[O-])c5)cc4c3c2)cc1 [R356] | > 100 |  |  |  |
| c1c[nH]c(-c2ccc3c(n2)[nH]c2ccccc23)c1 [R355, 2-(1H-pyrrol-2-yl)-9H-pyrido[2,3-b]indole] | > 100 |  |  |  |
| Cc1ccc2c(n1)[nH]c1ccc(C(=O)c3ccccc3)cc12 [R243, 6-benzoyl-2-methyl-9H-pyrido[2,3-b]indole] | 15.3 ± 1.5 |  |  |  |
| CNCC(=O)c1ccc2[nH]c3ncccc3c2c1 [R245] | 82.4 ± 8.1 |  |  |  |
| Nc1cccc(-c2ccc3[nH]c4ncccc4c3c2)n1 [R247] | > 100 |  |  |  |
| c1coc(-c2cnc3[nH]c4ccccc4c3c2)c1 [R325, 3-(furan-2-yl)-9H-pyrido[2,3-b]indole] |  | > 100 | > 100 |  |
| CCN(CC)CCSCC(=O)c1ccc2[nH]c3nc(Nc4cccc([N+](=O)[O-])c4)ccc3c2c1 [R321, 2-(2′-(N,N-diethylamino)ethylthio)-1-[2-(3-nitrophenylamino)-9H-pyrido[2,3-b]indol-6-yl]ethanone] | 18 ± 1 | 0.3 | 0.7 |  |
